Results taken from patent US12180173B1, “5-((2-isopropyl-5-methylphenoxy)methyl)-3-(naphthalen-1-yl)-1,2,4-oxadiazole as an anti-cancer and antimicrobial compound” (KING FAISAL UNIVERSITY, priority 2023, dated 2024).

How the values were obtained:
Type in all cases: cell-based
Escherichia coli = assay: Agar plate disc-diffusion, inhibition zone
Procedure: (§1) The agar plate disc-diffusion method was applied. […] The discs were then placed onto the surface of agar plates (nutrient agar for bacteria and Sabouraud's dextrose agar for fungi) seeded with the test organism. Each plate contained 15 mL of the agar medium, previously seeded with 0.2 mL of the broth culture of each organism pregrown for 18 hours. The plates were incubated at 37° C. for 48 h, and 72 h for fungi. The inhibition zones were measured in mm. Discs impregnated with DMSO were used as a control, and its inhibition zone was subtracted from the tested compound actual inhibition zone.

Staphylococcus aureus = assay: Agar plate disc-diffusion, inhibition zone
Procedure: as §1

Bacillus cereus = assay: Agar plate disc-diffusion, inhibition zone
Procedure: as §1

[1] = system: Chrysosporium keratinophilum; assay: Agar plate disc-diffusion, inhibition zone
Procedure: as §1

Pseudomonas aeruginosa = assay: Agar plate disc-diffusion, inhibition zone
Procedure: as §1

Aspergillus flavus = assay: Agar plate disc-diffusion, inhibition zone
Procedure: as §1

different microbes = assay: Antimicrobial activity, agar plate disc-diffusion (overall statement); settings: against different microbes (bacteria and fungi)
Procedure: The agar plate disc-diffusion method was applied. Sterilized filter papers (6 mm in diameter) were wetted with 10 μL of a solution of 5-((2-isopropyl-5-methylphenoxy)methyl)-3-(naphthalen-1-yl)-1,2,4-oxadiazole (3) to be tested, containing 10 mg/mL in DMSO, and the discs were allowed to air dry. The discs were then placed onto the surface of agar plates (nutrient agar for bacteria and Sabouraud's dextrose agar for fungi) seeded with the test organism. Each plate contained 15 mL of the agar medium, previously seeded with 0.2 mL of the broth culture of each organism pregrown for 18 hours. The plates were incubated at 37° C. for 48 h, and 72 h for fungi. The inhibition zones were measured in mm. Discs impregnated with DMSO were used as a control, and its inhibition zone was subtracted from the tested compound actual inhibition zone.

[2] = system: human osteosarcoma cells (MG-63); assay: Cytotoxicity by SRB assay; settings: MG-63 cells, 0.01 μM to 100 μM for 72 h
From the text: (§2) The anticancer activity of the described synthesized compounds against highly aggressive androgen-independent metastatic human prostate cancer cells (PC3) and osteosarcoma (MG-63) cells. The human prostate cancer cells (PC3) and human osteosarcoma cells (MG-63) were obtained from Nawah Scientific Inc. (Mokatam, Cairo, Egypt) and cultured in DMEM (Dulbecco's modified eagle's medium), Gibco, USA, supplemented with fetal bovine serum (FBS) at a concentration of 10% and 100 U/mL of penicillin and streptomycin (PS). The Cells were incubated at 37° C. in a humidified environment that contained 5% CO2.
(§3) Cells were seeded in 96-well plates as aliquots of 100 μL cell suspension and incubated in a complete media for 24 h. afterward, cells were treated with 5-((2-isopropyl-5-methylphenoxy)methyl)-3-(naphthalen-1-yl)-1,2,4-oxadiazole at diverse concentrations ranging from 0.01 μM to 100 μM for 72 h. Then, cells were fixed at 4° C. for one hour with 150 μL of 10% trichloroacetic acid (TCA). […] Then, 150 μL of Tris pH 10.5 (10 mM) was added, and the absorbance was measured at 540 nm using a BMG LABTECH®-FLUOstar Omega microplate reader (Ortenberg, Germany). Half maximal inhibitory concentrations (IC50) values were calculated for each experiment using GraphPad Prism 6 software. […]
(§4) The inhibition was calculated using the following equation: Inhibition %=100−Average Viability

[3] = system: human prostate cancer cells (PC3); assay: Cytotoxicity by SRB assay; settings: 0.01 μM to 100 μM for 72 h
From the text: as §2, §3, §4

[4] = A = concentration of comp. = 10,000 μL
[5] = B = concentration of comp. = 30,000 μL
[6] = C = concentration of comp. = 50,000 μL

O=C(O)c1cn(C2CC2)c2cc(N3CCNCC3)c(F)cc2c1=O [Cip., ciprofloxacin, reference compound]
inhibition zone (Escherichia coli; [4]): 30 mm | inhibition zone (Escherichia coli; [5]): 39 mm | inhibition zone (Escherichia coli; [6]): 60 mm | inhibition zone (Staphylococcus aureus; [4]): 43 mm | inhibition zone (Staphylococcus aureus; [5]): 44 mm | inhibition zone (Staphylococcus aureus; [6]): 53 mm | inhibition zone (Bacillus cereus; [4]): 29 mm | inhibition zone (Bacillus cereus; [5]): 30 mm | inhibition zone (Bacillus cereus; [6]): 42 mm | inhibition zone [1, 4]: 29 mm | inhibition zone [1, 5]: 30 mm | inhibition zone [1, 6]: 53 mm | inhibition zone (Pseudomonas aeruginosa; [4]): 29 mm | inhibition zone (Pseudomonas aeruginosa; [5]): 30 mm | inhibition zone (Pseudomonas aeruginosa; [6]): 53 mm | inhibition zone (Aspergillus flavus; [4]): 29 mm | inhibition zone (Aspergillus flavus; [5]): 30 mm | inhibition zone (Aspergillus flavus; [6]): 42 mm

Cc1ccc(C(C)C)c(OCc2nc(-c3cccc4ccccc34)no2)c1 [Compound 3, 5-((2-isopropyl-5-methylphenoxy)methyl)-3-(naphthalen-1-yl)-1,2,4-oxadiazole]
antimicrobial activity (different microbes): excellent antimicrobial activities | antiproliferative activity [2]: excellent antiproliferative activities | antiproliferative activity [3]: excellent antiproliferative activities | inhibition zone (Escherichia coli; [4]): 29 mm | inhibition zone (Escherichia coli; [5]): 32 mm | inhibition zone (Escherichia coli; [6]): 51 mm | inhibition zone (Staphylococcus aureus; [4]): 14 mm | inhibition zone (Staphylococcus aureus; [5]): 21 mm | inhibition zone (Staphylococcus aureus; [6]): 24 mm | inhibition zone (Bacillus cereus; [4]): 28 mm | inhibition zone (Bacillus cereus; [5]): 30 mm | inhibition zone (Bacillus cereus; [6]): 39 mm | inhibition zone [1, 4]: 27 mm | inhibition zone [1, 5]: 29 mm | inhibition zone [1, 6]: 46 mm | inhibition zone (Pseudomonas aeruginosa; [4]): 24 mm | inhibition zone (Pseudomonas aeruginosa; [5]): 28 mm | inhibition zone (Pseudomonas aeruginosa; [6]): 37 mm | inhibition zone (Aspergillus flavus; [4]): 18 mm | inhibition zone (Aspergillus flavus; [5]): 22 mm | inhibition zone (Aspergillus flavus; [6]): 30 mm
